In patent US20260028365A1 (BIOGEN MA INC., priority 2022, published 2026):

Each compound was assayed against Tyk2 (Homo sapiens (Human), UniProt P29597) (assay: pSTAT4 Cell Assay (MSD, NK92 cells)). Conditions: not given.
Type: cell-based
Method: The inhibitory potency of compounds of the disclosure against the Tyk2 kinase activity on STAT4 was evaluated using an MSD-platform plate-based assay format. NK92 cells natively expressing STAT4 and Tyk2 were serum-starved to reduce background phosphorylation levels, then cells were treated compounds for 1 hr with a 10-point four-fold dilution series starting at 10 μM. Cells were then stimulated with 30 ng/mL […] for 15 minutes. […] The data were normalized and the percent activity versus log concentration of compound were fitted with a 4-parameter logistic model to generate to generate IC50 curves.

Chain of Tyk2 (P29597 whole entry): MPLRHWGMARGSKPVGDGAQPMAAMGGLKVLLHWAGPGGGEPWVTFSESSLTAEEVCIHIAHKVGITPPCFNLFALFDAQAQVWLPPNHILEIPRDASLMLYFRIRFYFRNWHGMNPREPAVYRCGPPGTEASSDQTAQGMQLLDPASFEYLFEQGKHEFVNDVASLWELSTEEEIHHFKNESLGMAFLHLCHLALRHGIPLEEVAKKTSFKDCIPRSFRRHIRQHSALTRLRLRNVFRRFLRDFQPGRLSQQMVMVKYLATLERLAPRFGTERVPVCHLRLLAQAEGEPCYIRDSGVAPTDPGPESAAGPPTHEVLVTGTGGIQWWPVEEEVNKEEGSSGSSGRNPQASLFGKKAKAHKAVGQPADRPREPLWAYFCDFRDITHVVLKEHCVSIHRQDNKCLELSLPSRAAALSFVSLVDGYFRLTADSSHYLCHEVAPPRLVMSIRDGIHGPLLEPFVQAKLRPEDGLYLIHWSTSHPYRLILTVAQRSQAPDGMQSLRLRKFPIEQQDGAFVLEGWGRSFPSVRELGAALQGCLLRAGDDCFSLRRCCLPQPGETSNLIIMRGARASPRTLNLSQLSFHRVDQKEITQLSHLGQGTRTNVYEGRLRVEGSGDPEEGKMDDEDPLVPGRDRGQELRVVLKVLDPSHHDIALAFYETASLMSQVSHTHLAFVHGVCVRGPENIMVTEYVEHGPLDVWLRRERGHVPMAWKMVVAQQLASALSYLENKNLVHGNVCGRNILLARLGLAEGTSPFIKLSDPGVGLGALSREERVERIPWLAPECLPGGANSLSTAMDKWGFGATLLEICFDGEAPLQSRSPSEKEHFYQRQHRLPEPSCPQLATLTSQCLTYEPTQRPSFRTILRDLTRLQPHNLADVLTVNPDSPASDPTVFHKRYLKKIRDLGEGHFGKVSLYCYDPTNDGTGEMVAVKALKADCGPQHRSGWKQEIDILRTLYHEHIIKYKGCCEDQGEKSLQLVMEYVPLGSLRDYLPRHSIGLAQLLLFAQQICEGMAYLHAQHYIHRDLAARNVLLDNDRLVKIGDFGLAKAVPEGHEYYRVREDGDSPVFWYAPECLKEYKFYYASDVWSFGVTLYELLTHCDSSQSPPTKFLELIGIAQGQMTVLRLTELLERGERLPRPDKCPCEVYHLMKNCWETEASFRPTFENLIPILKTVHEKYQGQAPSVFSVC

Structure (SMILES) | IC50
CN1CCc2sc(-c3cnc(NC=O)cc3Nc3ccnc(C(C)(F)F)n3)nc2C1 [Example 796, N-(4-((2-(1,1-difluoroethyl)pyrimidin-4-yl)amino)-5-(5-methyl-4,5,6,7-tetrahydrothiazolo[4,5-c]pyridin-2-yl)pyridin-2-yl)formamide] | 10 to 100 nM
CC(=O)Nc1cc(Nc2cc(C)nc(C(C)(F)F)n2)c(-c2ccn(C(F)F)n2)cn1 [Example 811, N-(4-((2-(1,1-difluoroethyl)-6-methylpyrimidin-4-yl)amino)-5-(1-(difluoromethyl)-1H-pyrazol-3-yl)pyridin-2-yl)acetamide] | 10 to 100 nM
CC(=O)Nc1cc(Nc2ccnc(C(C)(F)F)n2)c(-c2cnc(OC(F)F)cn2)cn1 [Example 854, N-(4-((2-(1,1-difluoroethyl)pyrimidin-4-yl)amino)-5-(5-(difluoromethoxy)pyrazin-2-yl)pyridin-2-yl)acetamide] | 10 to 100 nM
CCc1cc(Nc2cc(NC(C)=O)ncc2-c2cnc(CN3CCOCC3)cn2)nc(C(C)(F)F)n1 [Example 899, N-(4-((2-(1,1-difluoroethyl)-6-ethylpyrimidin-4-yl)amino)-5-(5-(morpholinomethyl)pyrazin-2-yl)pyridin-2-yl)acetamide] | 10 to 100 nM
CCc1cc(Nc2cc(NC(C)=O)ncc2-c2ccc(CN3CCCC3)cn2)nc(C(C)(F)F)n1 [Example 901, N-(4′-((2-(1,1-difluoroethyl)-6-ethylpyrimidin-4-yl)amino)-5-(pyrrolidin-1-ylmethyl)-[2,3′-bipyridin]-6′-yl)acetamide] | ≤ 10 nM
CCc1cc(Nc2cc(NC(C)=O)ncc2-c2ccc(CN3C[C@@H]4C[C@H]3CO4)cn2)nc(C(C)(F)F)n1 [Example 902, N-(5-(((1S,4S)-2-oxa-5-azabicyclo[2.2.1]heptan-5-yl)methyl)-4′-((2-(1,1-difluoroethyl)-6-ethylpyrimidin-4-yl)amino)-[2,3′-bipyridin]-6′-yl)acetamide] | ≤ 10 nM
CCc1cc(Nc2cc(NC(C)=O)ncc2-c2ncc(CN3CCCC3)cn2)nc(C(C)(F)F)n1 [Example 903, N-(4-((2-(1,1-difluoroethyl)-6-ethylpyrimidin-4-yl)amino)-5-(5-(pyrrolidin-1-ylmethyl)pyrimidin-2-yl)pyridin-2-yl)acetamide] | 100 to 1000 nM
CCc1cc(Nc2cc(NC(C)=O)ncc2-c2ncc(CN3CCCC3)cc2F)nc(C(C)(F)F)n1 [Example 904, N-(4′-((2-(1,1-difluoroethyl)-6-ethylpyrimidin-4-yl)amino)-3-fluoro-5-(pyrrolidin-1-ylmethyl)-[2,3′-bipyridin]-6′-yl)acetamide] | ≤ 10 nM
CCc1cc(Nc2cc(NC(C)=O)ncc2-c2cc(CN3C[C@@H]4C[C@H]3CO4)ncn2)nc(C(C)(F)F)n1 [Example 905, N-(5-(6-(((1S,4S)-2-oxa-5-azabicyclo[2.2.1]heptan-5-yl)methyl)pyrimidin-4-yl)-4-((2-(1,1-difluoroethyl)-6-ethylpyrimidin-4-yl)amino)pyridin-2-yl)acetamide] | 10 to 100 nM
CCc1cc(Nc2cc(NC(C)=O)ncc2-c2ccc(F)c(CN3C[C@@H]4C[C@H]3CO4)n2)nc(C(C)(F)F)n1 [Example 906, N-(6-(((1S,4S)-2-oxa-5-azabicyclo[2.2.1]heptan-5-yl)methyl)-4′-((2-(1,1-difluoroethyl)-6-ethylpyrimidin-4-yl)amino)-5-fluoro-[2,3′-bipyridin]-6′-yl)acetamide] | ≤ 10 nM
CCc1cc(Nc2cc(NC(C)=O)ncc2-c2nccc(CN3C[C@H]4C[C@@H]3CO4)n2)nc(C(C)(F)F)n1 [Example 907, N-(5-(4-(((1R,4R)-2-oxa-5-azabicyclo[2.2.1]heptan-5-yl)methyl)pyrimidin-2-yl)-4-((2-(1,1-difluoroethyl)-6-ethylpyrimidin-4-yl)amino)pyridin-2-yl)acetamide] | 10 to 100 nM

Same assay, conditions: MSD

Structure (SMILES) | IC50
CC(=O)Nc1cc(Nc2cc(C)nc(C34COC(C3)C4)n2)c(-c2ccc(N3CCOCC3)cn2)cn1 [Example 574, N-(4′-((2-(2-oxabicyclo[2.1.1]hexan-4-yl)-6-methylpyrimidin-4-yl)amino)-5-morpholinO[2,3′-bipyridin]-6′-yl)acetamide] | ≤ 10 nM
COCc1ccc(-c2cnc(NC(C)=O)cc2Nc2nc(C(C)(F)F)ncc2OC)nc1 [Example 589, N-(4′-((2-(1,1-difluoroethyl)-5-methoxypyrimidin-4-yl)amino)-5-(methoxymethyl)-[2,3′-bipyridin]-6′-yl)acetamide] | ≤ 10 nM
COc1cnc(C(C)(F)F)nc1Nc1cc(NC(C)=O)ncc1-c1ccn(C)n1 [Example 590, N-(4-((2-(1,1-difluoroethyl)-5-methoxypyrimidin-4-yl)amino)-5-(1-methyl-1H-pyrazol-3-yl)pyridin-2-yl)acetamide] | 10 to 100 nM
COc1nc(-c2cnc(NC(C)=O)cc2Nc2cc(C)nc(C(C)(F)F)n2)nn1C [Example 609, N-(4-((2-(1,1-difluoroethyl)-6-methylpyrimidin-4-yl)amino)-5-(5-methoxy-1-methyl-1H-1,2,4-triazol-3-yl)pyridin-2-yl)acetamide] | 100 to 1000 nM
CC(=O)Nc1cc(Nc2cc(C)nc(C(C)(F)F)n2)c(-c2nn(C)cc2F)cn1 [Example 616, N-(4-((2-(1,1-difluoroethyl)-6-methylpyrimidin-4-yl)amino)-5-(4-fluorO1-methyl-1H-pyrazol-3-yl)pyridin-2-yl)acetamide] | 10 to 100 nM
CC(=O)Nc1cc(Nc2cc(C)nc(C(C)(F)F)n2)c(-c2ccnc(N(C)C)n2)cn1 [Example 629, N-(4-((2-(1,1-difluoroethyl)-6-methylpyrimidin-4-yl)amino)-5-(2-(dimethylamino)pyrimidin-4-yl)pyridin-2-yl)acetamide] | ≤ 10 nM
CC(=O)Nc1cc(Nc2cc(C)nc(C(C)(F)F)n2)c(-c2cccc(C3CCCO3)n2)cn1 (stereo not drawn) [Example 639, N-(4′-((2-(1,1-difluoroethyl)-6-methylpyrimidin-4-yl)amino)-6-(tetrahydrofuran-2-yl)-[2,3′-bipyridin]-6′-yl)acetamide] | ≤ 10 nM
CC(=O)Nc1cc(Nc2ccnc(C(C)(F)F)n2)c(-c2cccc(C(C)(C)C#N)n2)cn1 [Example 653, N-(6-(2-cyanopropan-2-yl)-4′-((2-(1,1-difluoroethyl)pyrimidin-4-yl)amino)-[2,3′-bipyridin]-6′-yl)acetamide] | 10 to 100 nM
COc1ccnc(-c2cnc(NC(C)=O)cc2Nc2cc(C)nc(C(C)(F)F)n2)n1 [Example 658, N-(4-((2-(1,1-difluoroethyl)-6-methylpyrimidin-4-yl)amino)-5-(4-methoxypyrimidin-2-yl)pyridin-2-yl)acetamide] | ≥ 1000 nM
COc1nc(-c2cnc(NC(C)=O)cc2Nc2cc(C)nc(C(C)(F)F)n2)ncc1F [Example 659, N-(4-((2-(1,1-difluoroethyl)-6-methylpyrimidin-4-yl)amino)-5-(5-fluorO4-methoxypyrimidin-2-yl)pyridin-2-yl)acetamide] | ≥ 1000 nM
COCCc1cncc(-c2cnc(NC(C)=O)cc2Nc2cc(C)nc(C(C)(F)F)n2)n1 [Example 664, N-(4-((2-(1,1-difluoroethyl)-6-methylpyrimidin-4-yl)amino)-5-(6-(2-methoxyethyl)pyrazin-2-yl)pyridin-2-yl)acetamide] | 10 to 100 nM
CC(=O)Nc1cc(Nc2cc(C)nc(C(C)(F)F)n2)c(-c2nccc(N3CCOCC3)n2)cn1 [Example 674, N-(4-((2-(1,1-difluoroethyl)-6-methylpyrimidin-4-yl)amino)-5-(4-morpholinopyrimidin-2-yl)pyridin-2-yl)acetamide] | ≥ 1000 nM
CC(=O)Nc1cc(Nc2cc(C)nc(C(C)(F)F)n2)c(-c2ncc3c(n2)COC3)cn1 [Example 678, N-(4-((2-(1,1-difluoroethyl)-6-methylpyrimidin-4-yl)amino)-5-(5,7-dihydrofuro[3,4-d]pyrimidin-2-yl)pyridin-2-yl)acetamide] | 10 to 100 nM
CC(=O)Nc1cc(Nc2cc(C)nc(C(C)(F)F)n2)c(-c2ccc3c(n2)CCOC3)cn1 [Example 679, N-(4-((2-(1,1-difluoroethyl)-6-methylpyrimidin-4-yl)amino)-5-(7,8-dihydrO5H-pyrano[4,3-b]pyridin-2-yl)pyridin-2-yl)acetamide] | ≤ 10 nM
CC(=O)Nc1cc(Nc2cc(C)nc(C(C)(F)F)n2)c(C2=NC3C(=O)OCC3C=N2)cn1 (stereo not drawn) [Example 682, N-(4-((2-(1,1-difluoroethyl)-6-methylpyrimidin-4-yl)amino)-5-(7-oxO4a,5,7,7a-tetrahydrofuro[3,4-d]pyrimidin-2-yl)pyridin-2-yl)acetamide] | ≤ 10 nM
CC(=O)Nc1cc(Nc2cc(C)nc(C(C)(F)F)n2)c(-c2cc3n(n2)CCN(C)C3C)cn1 (stereo not drawn) [Example 683, N-(4-((2-(1,1-difluoroethyl)-6-methylpyrimidin-4-yl)amino)-5-(4,5-dimethyl-4,5,6,7-tetrahydropyrazolo[1,5-a]pyrazin-2-yl)pyridin-2-yl)acetamide] | ≤ 10 nM
CC(=O)Nc1cc(Nc2cc(C)nc(C(C)(F)F)n2)c(-c2nc3c(s2)CN(C)C3)cn1 [Example 684, N-(4-((2-(1,1-difluoroethyl)-6-methylpyrimidin-4-yl)amino)-5-(5-methyl-5,6-dihydrO4H-pyrrolo[3,4-d]thiazol-2-yl)pyridin-2-yl)acetamide] | ≤ 10 nM
CC(=O)Nc1cc(Nc2ccnc(C(C)(F)F)n2)c(-c2cnc(C)cn2)cn1 [Example 693, N-(4-((2-(1,1-difluoroethyl)pyrimidin-4-yl)amino)-5-(5-methylpyrazin-2-yl)pyridin-2-yl)acetamide] | 10 to 100 nM
CCc1cc(Nc2cc(NC(C)=O)ncc2-c2cc3n(n2)CCN(C)C3)nc(C(C)(F)F)n1 [Example 721, N-(4-((2-(1,1-difluoroethyl)-6-ethylpyrimidin-4-yl)amino)-5-(5-methyl-4,5,6,7-tetrahydropyrazolo[1,5-a]pyrazin-2-yl)pyridin-2-yl)acetamide] | ≤ 10 nM
